Experimental data taken from PubChem BioAssay (NCI).
Several values for one entry are separate records, joined by “and”; a condition that tells them apart may be missing. Equal entries are not always repeated.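 All cell lines were grown in 96-well plates and treated with compound for 48 hours. GI50 = concentration required for 50% inhibition of growth. TGI marks complete inhibition of growth.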 Where a SMILES comes first, the peptide text is derived from it. Square brackets hold non-standard residues; d marks the D form. Peptide text beside a SMILES is read from it. [ ]: non-standard residue; d: D form. The star is where a group is joined. ξ: configuration not given here. Phe(4-NO2) = N[CH](Cc1ccc([N+](=O)[O-])cc1)C(=O)O; ξPhe(4-NO2) = NC(Cc1ccc([N+](=O)[O-])cc1)C(=O)O; Boc = CC(C)(C)OC(=O)*

Key:
Experiment in all cases: NCI anticancer screen, dose series, 48 h
ACHN renal = tested on: ACHN renal
CCRF-CEM leukemia = tested on: CCRF-CEM leukemia
EKVX NSCLC = tested on: EKVX NSCLC
M14 melanoma = tested on: M14 melanoma
MCF7 breast = tested on: MCF7 breast
NCI/ADR-RES ovarian = tested on: NCI/ADR-RES ovarian
SF-295 CNS = tested on: SF-295 CNS
SK-MEL-2 melanoma = tested on: SK-MEL-2 melanoma
SK-OV-3 ovarian = tested on: SK-OV-3 ovarian
SR leukemia = tested on: SR leukemia
SW-620 colon = tested on: SW-620 colon
T-47D breast = tested on: T-47D breast

SMILES | TGI (ACHN renal) | TGI (CCRF-CEM leukemia) | TGI (EKVX NSCLC) | TGI (M14 melanoma) | TGI (MCF7 breast) | TGI (NCI/ADR-RES ovarian) | TGI (SF-295 CNS) | TGI (SK-MEL-2 melanoma) | TGI (SK-OV-3 ovarian) | TGI (SR leukemia) | TGI (SW-620 colon) | TGI (T-47D breast) | GI50 (SK-MEL-2 melanoma) | GI50 (T-47D breast)
CCOC(OCC)[C@H](N)[C@@H](O)[C@@H](O)[C@H]1COC(C)(C)O1 | > 100 µM | > 100 µM | > 100 µM | > 100 µM | > 100 µM | > 100 µM | > 100 µM | > 100 µM | > 100 µM | > 100 µM | > 100 µM | – | – | –
C=C(C1=CC(=O)C(C)(C)O1)[C@@H]1CC=C([C@@H]2CC[C@H]3[C@@]2(C)CC[C@H]2C(C)(C)C(=O)[C@H](OC(=O)CC(C)(O)CC(=O)O)C[C@]32C)[C@H](O)O1 (stereo partly specified) | 25.4 µM | 6.12 µM | 29.8 µM | 27 µM | 20.9 µM | 51.3 µM | > 75 µM | 26.7 µM | 46.9 µM | 49.2 µM | 25.4 µM | – | – | –
CCNC(=O)CNC(=O)C(Cc1ccc([N+](=O)[O-])cc1)NC(=O)OC(C)(C)C (stereo unspecified) (Boc-[ξPhe(4-NO2)]-Gly-NHEt) | > 100 µM | > 100 µM | > 100 µM | > 100 µM | > 100 µM | > 100 µM | > 100 µM | – | > 100 µM | > 100 µM | > 100 µM | – | – | –
N#Cc1c2ccc([N+](=O)[O-])cc2c(=O)n2c1sc1ccccc12 | > 100 µM | 34.4 µM | – | – | – | 66.3 µM | – | 53.6 µM | – | 24.4 µM | > 100 µM | 71.4 µM | – | –
COC(=O)CCC(NC(=O)C(CCC(=O)OC)NC(=O)C(CCC(=O)OC)NC(=O)C(CCC(=O)OC)NC(=O)C(CCC(=O)OC)NC(=O)C(Cc1ccc([N+](=O)[O-])cc1)NC(=O)C(CCC(=O)OC)NC(=O)C(CCC(=O)OC)NC(=O)C(CCC(=O)OC)NC(=O)C(CCC(=O)OC)NC(=O)C(CCC(=O)OC)NC(C)=O)C(N)=O (stereo unspecified) (Ac-E(OMe)E(OMe)E(OMe)E(OMe)E(OMe)[Phe(4-NO2)]E(OMe)E(OMe)E(OMe)E(OMe)E(OMe)-NH2; configuration not given here) | > 100 µM | > 100 µM | > 100 µM | > 100 µM | > 100 µM | > 100 µM | > 100 µM | > 100 µM | > 100 µM | > 100 µM | > 100 µM | – | – | –
COc1ccc(OCC(C)(C)O)cc1 | – | > 100 µM | > 100 µM | – | > 84.1 µM | > 100 µM | > 100 µM | > 100 µM | > 100 µM | – | > 100 µM | – | – | –
C/C(=N\Nc1nc2ccccc2o1)c1cc2ccccc2cn1 | 2.55 µM | > 38.5 µM | 1.25 µM | – | > 33.7 µM | – | 4.56 µM | 12.2 µM | 8.15 µM | – | > 100 µM | > 100 µM | – | –
CC(c1ccccc1)C(O)S(=O)(=O)O (stereo unspecified) | > 100 µM | > 100 µM | > 100 µM | > 100 µM | – | – | > 100 µM | > 100 µM | > 100 µM | – | > 100 µM | – | – | –
CN(C(=O)c1ccc(Cl)cc1)C(=S)N1CCN(c2ccccc2)CC1 | > 100 µM | > 100 µM | – | > 100 µM | > 100 µM | – | > 100 µM | > 100 µM | – | > 100 µM | > 100 µM | > 100 µM | – | –
COc1ccc2c(c1)OC1c3ccccc3OCC21 (stereo unspecified) | > 100 µM | > 100 µM | > 100 µM | > 100 µM | > 100 µM | > 100 µM | > 100 µM | > 100 µM | > 100 µM | – | > 100 µM | > 100 µM | – | –
O=c1oc2ccccc2n1CCCn1c(=O)oc2ccccc21 | > 100 µM | > 100 µM | > 100 µM | > 100 µM | > 100 µM | > 100 µM | > 100 µM | > 100 µM | > 100 µM | > 100 µM | > 100 µM | – | – | –
CC1=CC(=O)/C(=C/N2C(=O)CNC2=S)C(=O)O1 | > 100 µM | – | > 100 µM | > 100 µM | > 100 µM | > 100 µM | > 100 µM | > 100 µM | > 100 µM | – | > 100 µM | > 100 µM | – | –
C=CCN(c1cc(OC)c2c(c1[N+](=O)[O-])C(C)(SC)C(=O)N2)S(C)(=O)=O (stereo unspecified) | > 100 µM | – | – | – | > 100 µM | > 100 µM | > 100 µM | > 100 µM | > 100 µM | > 100 µM | > 100 µM | > 100 µM | – | –
O=C(Nc1nccs1)NS(=O)(=O)n1cnc2ccccc21 | > 100 µM | > 100 µM | > 100 µM | > 100 µM | > 100 µM | > 100 µM | > 100 µM | > 100 µM | > 100 µM | – | > 100 µM | > 100 µM | – | –
Cc1ccc(N2C3=C(CC4=C2CC(C)(C)CC4=O)C(=O)CC(C)(C)C3)cc1 | > 100 µM | > 100 µM | > 100 µM | > 100 µM | > 100 µM | > 100 µM | > 100 µM | – | > 100 µM | > 100 µM | > 100 µM | – | – | –
CN(C)c1c(C2CC(O)C(CO)O2)c(=O)c1=O (stereo unspecified) | > 100 µM | – | > 100 µM | > 100 µM | > 100 µM | > 100 µM | > 100 µM | > 100 µM | > 100 µM | > 100 µM | > 100 µM | > 100 µM | – | –
Cc1c(C#N)c(N)n(C2OC(CO)C(O)C(O)C2O)c(=S)c1C#N (stereo unspecified) | > 100 µM | > 100 µM | > 100 µM | > 100 µM | > 100 µM | – | > 100 µM | > 100 µM | > 100 µM | > 100 µM | > 100 µM | > 100 µM | 28.8 µM and > 100 µM | > 100 µM
COc1ccc2c(c1)C=C(C(C)(C)C)NS2(=O)=O | > 100 µM | > 100 µM | > 100 µM | > 100 µM | – | – | > 100 µM | > 100 µM | > 100 µM | > 100 µM | > 100 µM | – | – | –
C(#C[C@@]12CCC[C@@H]1N(Cc1ccccc1)CO2)c1ccc2c(c1)OCO2 | > 100 µM | > 100 µM | > 100 µM | > 100 µM | > 100 µM | > 100 µM | > 100 µM | > 100 µM | > 100 µM | – | > 100 µM | > 100 µM | – | –
O=P(O)(O)CC1OC(CO)C(O)C1O (stereo unspecified) | > 100 µM | > 100 µM | > 100 µM | > 100 µM | > 100 µM | > 100 µM | > 100 µM | > 100 µM | > 100 µM | – | > 100 µM | > 100 µM | – | –
